# According to PubChem BioAssay (NCI):
#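 In this assay, cells in 96-well plates receive the compound at five concentrations for 48 hours. Endpoints are linearly interpolated between the surrounding concentrations. GI50 is the concentration that inhibits growth by half. TGI denotes the concentration required for complete inhibition of growth.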
# How the values were obtained:
# Assay in all cases: NCI anticancer screen, dose series, 48 h
# 786-0 renal = tested on: 786-0 renal
# A498 renal = tested on: A498 renal
# A549 NSCLC = tested on: A549 NSCLC
# ACHN renal = tested on: ACHN renal
# BT-549 breast = tested on: BT-549 breast
# CAKI-1 renal = tested on: CAKI-1 renal
# CCRF-CEM leukemia = tested on: CCRF-CEM leukemia
# COLO 205 colon = tested on: COLO 205 colon
# DU-145 prostate = tested on: DU-145 prostate
# EKVX NSCLC = tested on: EKVX NSCLC
# HCC-2998 colon = tested on: HCC-2998 colon
# HCT-116 colon = tested on: HCT-116 colon
# HCT-15 colon = tested on: HCT-15 colon
# HL-60(TB) leukemia = tested on: HL-60(TB) leukemia
# HOP-62 NSCLC = tested on: HOP-62 NSCLC
# HOP-92 NSCLC = tested on: HOP-92 NSCLC
# HS 578T breast = tested on: HS 578T breast
# HT29 colon = tested on: HT29 colon
# IGROV1 ovarian = tested on: IGROV1 ovarian
# K-562 leukemia = tested on: K-562 leukemia
# KM12 colon = tested on: KM12 colon
# LOX IMVI melanoma = tested on: LOX IMVI melanoma
# MALME-3M melanoma = tested on: MALME-3M melanoma
# MCF7 breast = tested on: MCF7 breast
# MDA-MB-231 breast = tested on: MDA-MB-231 breast
# MOLT-4 leukemia = tested on: MOLT-4 leukemia
# NCI-H226 lung = tested on: NCI-H226 lung
# NCI-H23 lung = tested on: NCI-H23 lung
# NCI-H460 lung = tested on: NCI-H460 lung
# NCI-H522 lung = tested on: NCI-H522 lung
# OVCAR-4 ovarian = tested on: OVCAR-4 ovarian
# OVCAR-5 ovarian = tested on: OVCAR-5 ovarian
# OVCAR-8 ovarian = tested on: OVCAR-8 ovarian
# PC-3 prostate = tested on: PC-3 prostate
# RPMI-8226 leukemia = tested on: RPMI-8226 leukemia
# SF-268 CNS = tested on: SF-268 CNS
# SF-295 CNS = tested on: SF-295 CNS
# SK-MEL-2 melanoma = tested on: SK-MEL-2 melanoma
# SK-MEL-28 melanoma = tested on: SK-MEL-28 melanoma
# SK-MEL-5 melanoma = tested on: SK-MEL-5 melanoma
# SK-OV-3 ovarian = tested on: SK-OV-3 ovarian
# SN12C renal = tested on: SN12C renal
# SNB-19 CNS = tested on: SNB-19 CNS
# SNB-75 CNS = tested on: SNB-75 CNS
# SR leukemia = tested on: SR leukemia
# SW-620 colon = tested on: SW-620 colon
# T-47D breast = tested on: T-47D breast
# TK-10 renal = tested on: TK-10 renal
# U251 CNS = tested on: U251 CNS
# UACC-257 melanoma = tested on: UACC-257 melanoma
# UACC-62 melanoma = tested on: UACC-62 melanoma
# UO-31 renal = tested on: UO-31 renal
# M14 melanoma = tested on: M14 melanoma
# RXF 393 renal = tested on: RXF 393 renal
structure (smiles),measurement,setting,value
Nc1ccc2ccc(NS(=O)(=O)N3CCCCC3)cc2c1,GI50,786-0 renal,5.32 µM
same,TGI,786-0 renal,> 100 µM
same,GI50,A498 renal,0.176 µM
same,TGI,A498 renal,0.872 µM
same,GI50,A549 NSCLC,1 µM
same,TGI,A549 NSCLC,> 46 µM
same,GI50,ACHN renal,3.64 µM
same,TGI,ACHN renal,> 100 µM
same,GI50,BT-549 breast,0.69 µM
same,TGI,BT-549 breast,> 84.3 µM
same,GI50,CAKI-1 renal,0.584 µM
same,TGI,CAKI-1 renal,> 100 µM
same,GI50,CCRF-CEM leukemia,0.46 µM
same,TGI,CCRF-CEM leukemia,> 100 µM
same,GI50,COLO 205 colon,0.369 µM
same,TGI,COLO 205 colon,1.65 µM
same,GI50,DU-145 prostate,1.45 µM
same,TGI,DU-145 prostate,22.2 µM
same,GI50,EKVX NSCLC,2.05 µM
same,TGI,EKVX NSCLC,> 100 µM
same,GI50,HCC-2998 colon,0.707 µM
same,TGI,HCC-2998 colon,> 24.8 µM
same,GI50,HCT-116 colon,0.514 µM
same,TGI,HCT-116 colon,> 38.7 µM
same,GI50,HCT-15 colon,0.44 µM
same,TGI,HCT-15 colon,> 100 µM
same,GI50,HL-60(TB) leukemia,0.327 µM
same,TGI,HL-60(TB) leukemia,> 100 µM
same,TGI,HOP-62 NSCLC,> 100 µM
same,GI50,HOP-92 NSCLC,0.532 µM
same,TGI,HOP-92 NSCLC,73.1 µM
same,GI50,HS 578T breast,0.396 µM
same,TGI,HS 578T breast,5.99 µM
same,GI50,HT29 colon,0.4 µM
same,TGI,HT29 colon,> 100 µM
same,GI50,IGROV1 ovarian,0.765 µM
same,TGI,IGROV1 ovarian,> 100 µM
same,GI50,K-562 leukemia,0.354 µM
same,TGI,K-562 leukemia,> 100 µM
same,GI50,KM12 colon,0.273 µM
same,TGI,KM12 colon,> 65.7 µM
same,GI50,LOX IMVI melanoma,1.03 µM
same,TGI,LOX IMVI melanoma,> 100 µM
same,GI50,MALME-3M melanoma,0.489 µM
same,TGI,MALME-3M melanoma,> 100 µM
same,GI50,MCF7 breast,0.295 µM
same,TGI,MCF7 breast,> 100 µM
same,GI50,MDA-MB-231 breast,0.728 µM
same,TGI,MDA-MB-231 breast,> 33.7 µM
same,GI50,MOLT-4 leukemia,0.524 µM
same,TGI,MOLT-4 leukemia,> 100 µM
same,GI50,NCI-H226 lung,2.56 µM
same,TGI,NCI-H226 lung,> 100 µM
same,GI50,NCI-H23 lung,1.53 µM
same,TGI,NCI-H23 lung,> 63.8 µM
same,GI50,NCI-H460 lung,0.409 µM
same,GI50,NCI-H522 lung,0.205 µM
same,TGI,NCI-H522 lung,0.76 µM
same,GI50,OVCAR-4 ovarian,1.82 µM
same,TGI,OVCAR-4 ovarian,> 100 µM
same,TGI,OVCAR-5 ovarian,> 100 µM
same,GI50,OVCAR-8 ovarian,1.63 µM
same,TGI,OVCAR-8 ovarian,> 100 µM
same,GI50,PC-3 prostate,1.28 µM
same,TGI,PC-3 prostate,> 100 µM
same,GI50,RPMI-8226 leukemia,0.507 µM
same,TGI,RPMI-8226 leukemia,> 49.6 µM
same,GI50,SF-268 CNS,1.57 µM
same,TGI,SF-268 CNS,> 100 µM
same,GI50,SF-295 CNS,0.228 µM
same,TGI,SF-295 CNS,2.88 µM
same,TGI,SK-MEL-2 melanoma,> 100 µM
same,GI50,SK-MEL-28 melanoma,0.664 µM
same,TGI,SK-MEL-28 melanoma,> 100 µM
same,GI50,SK-MEL-5 melanoma,0.285 µM
same,TGI,SK-MEL-5 melanoma,4.52 µM
same,GI50,SK-OV-3 ovarian,0.498 µM
same,GI50,SN12C renal,0.653 µM
same,TGI,SN12C renal,> 100 µM
same,GI50,SNB-19 CNS,0.797 µM
same,TGI,SNB-19 CNS,> 100 µM
same,GI50,SNB-75 CNS,0.446 µM
same,TGI,SNB-75 CNS,> 100 µM
same,GI50,SR leukemia,0.215 µM
same,TGI,SR leukemia,> 100 µM
same,GI50,SW-620 colon,0.336 µM
same,TGI,SW-620 colon,> 100 µM
same,GI50,T-47D breast,0.381 µM
same,TGI,T-47D breast,> 75.3 µM
same,GI50,TK-10 renal,3.15 µM
same,TGI,TK-10 renal,> 100 µM
same,GI50,U251 CNS,0.392 µM
same,TGI,U251 CNS,> 42 µM
same,GI50,UACC-257 melanoma,12.9 µM
same,TGI,UACC-257 melanoma,> 100 µM
same,GI50,UACC-62 melanoma,0.301 µM
same,TGI,UACC-62 melanoma,> 100 µM
same,GI50,UO-31 renal,1.7 µM
same,TGI,UO-31 renal,> 100 µM
CCOC(=O)c1sc2nc(-c3ccccc3)nn2c1CBr,TGI,786-0 renal,2.95 µM
same,TGI,A549 NSCLC,> 10 µM
same,TGI,CAKI-1 renal,2.83 µM
same,TGI,CCRF-CEM leukemia,0.642 µM
same,TGI,COLO 205 colon,3.73 µM
same,TGI,DU-145 prostate,> 10 µM
same,TGI,EKVX NSCLC,> 10 µM
same,TGI,HCC-2998 colon,> 10 µM
same,TGI,HL-60(TB) leukemia,1.34 µM
same,TGI,HOP-62 NSCLC,> 10 µM
same,TGI,HT29 colon,3.77 µM
same,TGI,IGROV1 ovarian,> 10 µM
same,TGI,K-562 leukemia,1.96 µM
same,TGI,KM12 colon,4.14 µM
same,TGI,LOX IMVI melanoma,3.17 µM
same,TGI,M14 melanoma,2.85 µM
same,TGI,MALME-3M melanoma,4.94 µM
same,TGI,MCF7 breast,3.78 µM
same,TGI,MDA-MB-231 breast,3.69 µM
same,TGI,MOLT-4 leukemia,1.18 µM
same,TGI,NCI-H23 lung,3.78 µM
same,TGI,OVCAR-8 ovarian,4.03 µM
same,TGI,PC-3 prostate,4.16 µM
same,TGI,RPMI-8226 leukemia,4.25 µM
same,TGI,RXF 393 renal,4.07 µM
same,TGI,SF-268 CNS,4.19 µM
same,TGI,SF-295 CNS,> 10 µM
same,TGI,SK-MEL-28 melanoma,3.41 µM
same,TGI,SK-MEL-5 melanoma,3.49 µM
same,TGI,SK-OV-3 ovarian,> 10 µM
same,TGI,SN12C renal,3.21 µM
same,TGI,SNB-75 CNS,3.69 µM
same,TGI,SR leukemia,1.51 µM
same,TGI,SW-620 colon,3.88 µM
same,TGI,T-47D breast,5.71 µM
same,TGI,TK-10 renal,4.47 µM
same,TGI,UACC-257 melanoma,3.92 µM
